In paper PMC10135567, “New Indole-3-Propionic Acid and 5-Methoxy-Indole Carboxylic Acid Derived Hydrazone Hybrids as Multifunctional Neuroprotectors” (Antioxidants, 2023):
Counter-ions that a name gives are not always drawn.

Legend:
[1] = Superoxide radical scavenging, xanthine/xanthine oxidase/NBT system; assay type: biochemical
Experimental: The 1 mL cuvette for the control contained 1 mM xanthine, 20 µL xanthine oxidase (100 IU/L), and 0.04 mM NBT [43, 44]. In the sample compositions, the tested hydrazones at different concentrations were added. All measurement compositions were incubated at 37 °C, and the absorbance was determined spectrophotometrically at 560 nm via Shimadzu UV-1601 UV-vis spectrophotometer.
The potential capability of the investigated compounds to prevent the superoxide-anion radical-induced NBT reduction was investigated spectrophotometrically by xanthine-oxidase assay. The assay was carried out at the final concentration of the tested compounds, at 1, 10, 50, and 100 µM.

[2] = O-phenanthroline Fe(II) chelation test; assay type: physicochemical; conditions: 200 µM compound, FeCl2
Experimental: The Fe (II)-chelating activity of the tested hydrazones was determined by the O-phenanthroline method. A total of 1 mL sample solutions of 50 mM PB pH 7 contained 0.2 mM O-phenanthroline and 0.05 mM FeCl2 and 0.2 mM hydrazone. In the controls, the tested compounds were omitted. Absorbance was measured at 515 nm via GENESYS 50 UV-VIS spectrophotometer after incubation for 5 min at 37 °C. The data for the sample activity were presented as a percentage of the control measurement. Absorbance spectra of all the samples, the control, and the measurement compositions containing the tested hydrazones and Fe(II) at the concentrations used in the samples were measured.
To explain the results of both systems of Fe(II)-induced oxidative damage, we studied the potency of the tested compounds to chelate-iron (Fe(II)). This was studied by spectrophotometric determination of free iron (Fe(II)) using the ortho-phenanthroline test, as 1,10-phenantroline reacts rapidly with Fe(II) ions in weakly acidic media, generating an orange–red complex (ferroin) with characteristic absorbance spectra (molar absorptivity 1.10.104 (α = 0.20) at ~max 512 nm and a molar ratio 3:1 (R: Fe(II))). The generated complex was stable, and the bound Fe(II) was resistant to oxidation. Lower absorbance of the reaction mixture indicated higher Fe^2+-chelating activity.

[3] = MTT cell viability assay (cytotoxicity), SH-SY5Y; conditions: human, SH-SY5Y neuroblastoma cells
Experimental: Neuroblastoma cell line SH-SY5Y (94030304) was acquired from the European Collection of Cell Cultures (ECACC, Salisbury, UK). Cells were cultured in a medium prepared with RPMI basic media supplemented with 10% heat-inactivated FBS (fetal bovine serum), 2 mM L-glutamine, 1% antibiotics (penicillin/streptomycin), and incubated at 37 °C in a humidified atmosphere containing 5% of CO2. The culture’s medium was replaced at a time interval of 2–3 days.
(§1) Cell viability was assessed via the mitochondrial reductase-dependent reaction of (3-(4,5-dimethylthiazol-2-yl)- 2,5-diphenyl tetrazolium bromide (MTT, cat. no. 475989, Calbiochem, Merck KGaA, Darmstadt, Germany). The SH-SY5Y and bEnd3 cell lines were seeded in 96-well plates at a density of 0.7 × 10^4 (bEnd3) or 2 × 10^4 (SH-SY5Y) cells/well and allowed to adhere for 24 h at 37 °C, 5% CO2. Then, the cells were incubated with the compounds (1–500 μM) for a preset time (24 h). For the solvent, the control cells were treated with DMSO corresponding to the highest concentration of DMSO in the samples (0.5% DMSO) in order to exclude its cytotoxic effect on the cells. For each concentration, a set of at least 6 wells were used. After incubation, the solution from each well was exchanged with fresh culture medium (100 µL/well), containing the MTT reagent (0.5 mg/mL) and incubated for 3 h at 37 °C in a humidified atmosphere and 5% CO2. The obtained formazan crystals were dissolved in 100 µL/well of 5% formic acid in propan-2-ol solution (or DMSO). The absorbance was measured at 570 nm via multiplate reader Tecan Infinite F200 PRO (Tecan Trading AG., Männedorf, Switzerland) or Synergy 2 (BioTek Instruments, Inc., Highland Park, Winooski, VT, USA).
(§2) Both the SH-SY5Y and bEnd3 cells were treated with the test compounds in a concentration range from 1 to 500 µM for 24 h.

[4] = MTT cell viability assay (cytotoxicity), bEnd3; assay type: cell-based, mouse; conditions: mouse, bEnd3 brain endothelial cells, 1–500 µM
Experimental: Mouse-brain endothelial cell line bEnd3 [36] (CRL-2299) was purchased from the American Type Culture Collection (ATCC, Manassas, VA, USA). The cells were cultured in DMEM (Dulbeco’s modified essential medium) (cat. no. 30-2002, ATCC, Manassas, VA, USA), supplemented with 10% heat-inactivated FBS (cat. no. F7524, Sigma-Aldrich Co. LLC, St. Louis, MO, USA), 1 mM L-glutamine (cat. no. G7513, Sigma-Aldrich Co. LLC, St. Louis, MO, USA) and 1× Antibiotic-Antimycotic solution (penicillin: streptomycin: amphotericin B (100 U/mL: 0.10 mg/mL: 0.25 µg/mL) (cat. no. A5955, Sigma-Aldrich Co. LLC, St. Louis, MO, USA) at 37 °C in a humidified atmosphere containing 5% CO2. The cells were passaged in 75 cm^2 flasks every 3–5 days via trypsinization (StableCell Trypsin solution, cat. no. T2610, Sigma-Aldrich Co. LLC, St. Louis, MO, USA).
as §1, §2

[5] = system: isolated rat-brain synaptosomes; test: 6-OHDA-induced neurotoxicity in isolated rat synaptosomes, synaptosomal viability; assay type: cell-based; conditions: Rattus norvegicus; 10 µM pre-incubation 30 min, then 150 µM 6-OHDA 1 h; read-out: synaptosomal viability (SV) preserved, as compared to 6-OHDA
Experimental: (§3) This neurotoxicity model was based on the metabolism and auto-oxidation of 6-hydroxy dopamine responsible for the reactive oxygen species and quinones generation, ultimately leading to neurotoxicity and neurodegeneration. The experiment was performed by pre-incubation of the synaptosomes with 10 µM of the compounds for 30 min, followed by the addition of 150 µM 6-hydroxy dopamine for induction of neurotoxicity. After 1 h, they were centrifuged twice for 1 min at 15,000 × g. After the second wash, the precipitates were resolved with buffer B and glucose.

[6] = Fe(II)-induced lipid peroxidation assay (LP assay, TBARS); assay type: biochemical; conditions: 90 µM, lecithin 1 mg/mL, 0.1 mM FeCl2; lower = stronger antioxidant
Experimental: (§4) The lipid peroxidation assay and a modification of the deoxyribose-degradation assay were used. Two types of measurement compositions in phosphate buffer (PB–K2HPO4/KH2PO4, pH 7.4) were prepared for both tests: (i) samples, containing the biologically relevant molecules (lecithin emulsion or deoxyribose), iron, and the tested hydrazones at the concentrations indicated below the figures; and (ii) controls, in which the tested hydrazones were omitted. The data for the sample activity were presented as a percentage of the control measurement.
The thiobarbituric-acid reactive-substance colorimetric test was performed in a model system of Fe(II)-induced lipid peroxidation as an emulsion prepared from egg yolk phospholipids. Each sample contained 1 mg/mL of lecithin. LP was initiated using 0.1 mM FeCl2. After 30 min incubation at 37 °C, 0.5 mL of 2.8% trichloroacetic acid solution and 0.5 mL of 0.5% thiobarbituric acid solution were added, following a second incubation at 100 °C for 20 min. Centrifugation at 3000 rpm for 20 min at 4 °C was performed, and we determined the absorbance value of the supernatant at 532 nm via Shimadzu UV-1601 UV-VIS spectrophotometer.

[7] = Fe(II)-induced deoxyribose degradation assay; assay type: biochemical; conditions: 80 µM, 2-deoxyribose 0.5 mM, 0.1 mM FeCl2; lower = stronger antioxidant
Experimental: as §4
The deoxyribose (0.5 mM) damage was induced by adding FeCl2 (0.1 mM). The measurement compositions were incubated at 37 °C for 30 min. The next step comprised adding 0.5 mL of 2.8% trichloroacetic acid and 0.5 mL of thiobarbituric acid. Then, the samples were heated in boiling water for 20 min, and their absorbance was estimated at 532 nm (characteristic band for the generated chromophore) via Shimadzu UV-1601 UV-vis spectrophotometer.

[8] = system: isolated rat-brain synaptosomes; test: Level of reduced glutathione (GSH) in isolated synaptosomes, substances administered alone
Experimental: (§5) Preparation of the synaptosomes was carried out by multiple centrifugations using the Percoll gradient. Homogenization of the brains was performed in 10 volumes of cold buffer 1, which contained 5 mM HEPES and 0.32 M sucrose (pH = 7.4), followed by centrifugation at different speeds. For preparation of the gradient, the synaptosomes were isolated by Percoll reagent. Synaptosomes were resuspended and incubated in buffer 2, which contained 290 mM NaCl, 0.95 mM MgCl2x6H2O, 10 mM KCl, 2.4 mM CaCl2xH2O, 2.1 mM NaH2PO4, 44 mM HEPES, and 13 mM D-glucose. Incubations were performed in a 5% CO2 + 95% O2 atmosphere. The method of Lowry et al., using bovine serum albumin as a standard content, was applied for determination of synaptosomal protein [51].
After the treatment with the tested compounds, the glutathione levels of the synaptosomes were determined with an Ellman reagent (DTNB). The GSH levels were evaluated based on the synaptosomal sediment, precipitated with 5% TCA, and centrifuged for 10 min at 4000× g. GSH levels in the supernatant were measured spectrophotometrically at 412 nm by a Spectro UV-vis split spectrophotometer (LaboMed. Inc., Los Angelis, California, USA). […]

[9] = system: isolated rat-brain synaptosomes; test: Synaptosomal viability (MTT), substances administered alone
Experimental: as §5
Synaptosomal viability was monitored based on a (3-(4,5)-dimethylthiazol-2-yl)-2,5-diphenyl tetrazolium bromide) assay. After incubation with the compounds, synaptosomes were treated with 0.5 mg/mL solution of (3-(4,5)-dimethylthiazol-2-yl)-2,5-diphenyl tetrazolium bromide) for 10 min at […]. Then, the synaptosomes were centrifuged twice at 15,000× g for 1 min. The resulting formazan crystals were dissolved in DMSO (dimethyl sulfoxide), and the extinction was determined by spectrophotometric measurements at 580–660 nm. […]

SH-SY5Y cells = test: H2O2-induced oxidative stress model in SH-SY5Y cells; assay type: cell-based, human; conditions: H2O2 1 mM 15 min
Experimental: The SH-SY5Y cells were seeded in 96-well plates at a density of 3.5 × 10^4/well in 100 μL of RPMI supplemented with FBS for 24 h. Then, the cell medium was aspirated, and the cells were treated with different concentrations of the compounds—1, 10, and 50 µM for 90 min. Afterwards, the SH-SY5Y cells were washed with PBS and were exposed to hydrogen peroxide (H2O2) (1 mM in PBS for 15 min) to induce oxidative stress. All well contents were replaced by fresh culture medium and incubated for 24 h. MTT assay was used to evaluate the amount of attached viable cells. Negative controls (cells without H2O2 treatment) were considered as 100% protection and H2O2-treated cells as 0% protection.
To evaluate the possible neuroprotective effects of the compounds, the SH-SY5Y cells were pre-treated with different concentrations (1, 10, 50 µM) for 90 min and then exposed to H2O2 (1 mM) for 15 min. The cell viability of all compounds was measured to verify their protective effect against the toxicity of hydrogen peroxide.

[10] = system: isolated rat-brain synaptosomes; test: 6-OHDA-induced neurotoxicity in isolated rat synaptosomes, GSH level; assay type: cell-based; conditions: 10 µM pre-incubation 30 min, then 150 µM 6-OHDA 1 h
Experimental: as §3

| SMILES | absorbance at 515 nm compared to the controls (Fe(II) chelation) [2] | IC50 at 24 h [3] [µM] | IC50 at 24 h [4] [µM] | viability at 10 µM [5] [%] | absorbance ratio sample/control (lipid peroxidation) [6] | absorbance ratio, % of the controls (deoxyribose degradation) [7] | other results |
| --- | --- | --- | --- | --- | --- | --- | --- |
| O=C(CCc1c[nH]c2ccccc12)NN=Cc1ccc(O)c(O)c1 [Compound 3b, N′-(3,4-Dihydroxybenzylidene)-3-(1H-indol-3-yl)propanehydrazide] | statistically identical absorbance values at 515 nm, as compared to the controls | 265 | 352 | 33 | below 65% |  | decrease of NBT reduction as compared to the controls ([1]; 100 µM (highest tested concentration)): more than 40% |
| O=C(CCc1c[nH]c2ccccc12)NN=Cc1ccc(O)cc1O [Compound 3c, N′-(2,4-Dihydroxybenzylidene)-3-(1H-indol-3-yl)propanehydrazide] | statistically identical absorbance values at 515 nm, as compared to the controls | 275 | > 500 | 33 | below 65% | did not induce a modulating effect | absorbance ratio (NBT reduction, % of control) ([1]; 1, 10, 50 and 100 µM): did not influence the estimated absorbance ratio at any of the tested concentrations; melting point: 239 to 240 °C |
| NCCc1cc(O)c(O)cc1O [Compound 6-OHDA, 6-hydroxydopamine] |  |  |  |  |  |  | decrease of GSH level vs. non-treated synaptosomes ([8]; 150 µM): 50%; decrease of synaptosomal viability (SV) vs. non-treated synaptosomes ([9]; 150 µM): 55% |
| C#CCN[C@@H]1CCc2ccccc21 [Rasagiline.HCl, Rasagiline] |  | > 500 |  | 67 |  |  | protective effect: increased cell viability of SH-SY5Y vs. H2O2 group (SH-SY5Y cells; 10 µM pre-treatment 90 min): 40%; protective effect: increased cell viability of SH-SY5Y vs. H2O2 group (SH-SY5Y cells; 50 µM pre-treatment 90 min): 46%; GSH level preserved, as compared to 6-OHDA [10]: 80%; reduction of GSH level vs. non-treated synaptosomes ([8]; 100 µM): did not decrease; reduction of synaptosomal viability (SV) vs. non-treated synaptosomes ([9]; 100 µM): 25% |
| O=c1c(O)c(-c2ccc(O)c(O)c2)oc2cc(O)cc(O)c12 [quercetin, reference compound] |  |  |  |  | 23% | about 50% |  |
